Source: patent EP0093484A2, “Antibacterial monic acid derivatives” (BEECHAM GROUP PLC, priority 1982, dated 1983)
Values after ≈ are worked out from the molar mass of the structure shown.

Assays:
M. gallisepticum S6 = experiment: Anti-mycoplasmal activity, MIC in Friis broth agarose; type: cell-based; details: Mycoplasmoides gallisepticum, 144 h, Friis broth solidified with 0.9% agarose, 6 days incubation at 37°C, read-out: MIC
[1] = tested on: Neisseria catarrhalis 1502; experiment: Human bacteria, MIC by serial dilution in nutrient agar; type: cell-based; details: nutrient agar with 5% chocolated horse blood, 18 hours at 37°C, read-out: MIC
Ps. aeruginosa 10662 = experiment: as above; type: cell-based; details: Pseudomonas aeruginosa, nutrient agar with 5% chocolated horse blood, 18 hours at 37°C, read-out: MIC
Past. multocida PA2 = experiment: Veterinary bacteria, MIC by two fold serial dilution in agar; details: Pasteurella multocida, PA2, 18 h
Description: (§1) The activity of the compounds of the Examples against various organisms important in veterinary infections was determined using two fold serial dilutions in Diagnostic Sensitivity Test Agar inoculated with 10^4 organisms.

Strep. pneumoniae CN33 = experiment: Human bacteria, MIC by serial dilution in nutrient agar; type: cell-based; details: Streptococcus pneumoniae, nutrient agar with 5% chocolated horse blood, 18 hours at 37°C, read-out: MIC
Strep. agalactiae SPA1 = experiment: Veterinary bacteria, MIC by two fold serial dilution in agar; details: Streptococcus agalactiae, SPA1, 18 h
Description: as §1

Sarcina lutea 8340 = experiment: Human bacteria, MIC by serial dilution in nutrient agar; type: cell-based; details: Micrococcus luteus, nutrient agar with 5% chocolated horse blood, 18 hours at 37°C, read-out: MIC
Staph. aureus Oxford = experiment: Veterinary bacteria, MIC by two fold serial dilution in agar; details: Staphylococcus aureus, 18 h
Description: as §1

M. bovis NCTC 10131 = experiment: microbe, parasite or virus in culture; type: cell-based; details: NCTC10131, 144 h
M. suipneumoniae JF 435 = experiment: Anti-mycoplasmal activity, MIC in Friis broth agarose; type: cell-based; details: Mesomycoplasma hyopneumoniae, JF435, 144 h, Friis broth solidified with 0.9% agarose, 6 days incubation at 37°C, read-out: MIC
[2] = tested on: Staph. aureus 152 (pen. sens.); experiment: Veterinary bacteria, MIC by two fold serial dilution in agar; details: Staphylococcus aureus, 18 h
Description: as §1

Bord. bronchiseptica BO9 = experiment: as above; details: Bordetella bronchiseptica, BO9, 18 h
Description: as §1

Bord. bronchiseptica B08 = experiment: as above; details: Bordetella bronchiseptica, B08, 18 h
Description: as §1

[3] = tested on: Haemophilus influenzae Q1; experiment: Human bacteria, MIC by serial dilution in nutrient agar; type: cell-based; details: nutrient agar with 5% chocolated horse blood, 18 hours at 37°C, read-out: MIC
M. pneumoniae ATCC 15492 = experiment: Anti-mycoplasmal activity, MIC in Friis broth agarose; type: cell-based; details: Mycoplasmoides pneumoniae, ATCC15492, 144 h, Friis broth solidified with 0.9% agarose, 6 days incubation at 37°C, read-out: MIC
Staph. aureus W2827 = experiment: Human bacteria, MIC by serial dilution in nutrient agar; type: cell-based; details: Staphylococcus aureus, nutrient agar with 5% chocolated horse blood, 18 hours at 37°C, read-out: MIC
Past. haemolytica PA5 = experiment: Veterinary bacteria, MIC by two fold serial dilution in agar; details: Mannheimia haemolytica, PA5, 18 h
Description: as §1

[4] = tested on: Staph. aureus B4 (pen. resistant); experiment: as above; details: Staphylococcus aureus, 18 h
Description: as §1

[5] = tested on: M. suipneumoniae PW/C/210; experiment: Anti-mycoplasmal activity, MIC in Friis broth agarose; type: cell-based; details: Mesomycoplasma hyopneumoniae, 144 h, Friis broth solidified with 0.9% agarose, 6 days incubation at 37°C, read-out: MIC
M. dispar NCTC 10125 = experiment: as above; type: cell-based; details: 144 h, Friis broth solidified with 0.9% agarose, 6 days incubation at 37°C, read-out: MIC
E. coli NCTC 10418 = experiment: Human bacteria, MIC by serial dilution in nutrient agar; type: cell-based; details: Escherichia coli, NCTC10418; E. coli NCTC 10418 (human panel); nutrient agar with 5% chocolated horse blood; 18 hours at 37°C; read-out: MIC
E. coli ESS = experiment: as above; type: cell-based; details: Escherichia coli, nutrient agar with 5% chocolated horse blood, 18 hours at 37°C, read-out: MIC
[6] = tested on: Haemophilus influenzae Wy21; experiment: as above; type: cell-based; details: nutrient agar with 5% chocolated horse blood, 18 hours at 37°C, read-out: MIC
K. aerogenes A = experiment: as above; type: cell-based; details: Klebsiella aerogenes, nutrient agar with 5% chocolated horse blood, 18 hours at 37°C, read-out: MIC
Strep. agalactiae 2788-B = experiment: as above; type: cell-based; details: Streptococcus agalactiae, nutrient agar with 5% chocolated horse blood, 18 hours at 37°C, read-out: MIC
Strep. dysgalactiae SPD1 = experiment: Veterinary bacteria, MIC by two fold serial dilution in agar; details: Streptococcus dysgalactiae, SPD1, 18 h
Description: as §1

E. coli E1 = experiment: as above; details: Escherichia coli, E1, 18 h
Description: as §1

[7] = tested on: M. hyosynoviae ATCC 25591; experiment: Anti-mycoplasmal activity, MIC in Friis broth agarose; type: cell-based; details: 144 h, Friis broth solidified with 0.9% agarose, 6 days incubation at 37°C, read-out: MIC
M. suipneumoniae Str. 11 = experiment: as above; type: cell-based; details: Mesomycoplasma hyopneumoniae, 144 h, Friis broth solidified with 0.9% agarose, 6 days incubation at 37°C, read-out: MIC
[8] = tested on: Corynebacterium xerosis 9755; experiment: Human bacteria, MIC by serial dilution in nutrient agar; type: cell-based; details: nutrient agar with 5% chocolated horse blood, 18 hours at 37°C, read-out: MIC
Strep. faecalis I = experiment: as above; type: cell-based; details: Enterococcus faecalis, nutrient agar with 5% chocolated horse blood, 18 hours at 37°C, read-out: MIC
[9] = tested on: Erysipelothrix rhusiopathiae NCTC 8163; experiment: Veterinary bacteria, MIC by two fold serial dilution in agar; details: Erysipelothrix rhusiopathiae, NCTC8163, 18 h
Description: as §1

M. suipneumoniae MS16 = experiment: Anti-mycoplasmal activity, MIC in Friis broth agarose; type: cell-based; details: Mesomycoplasma hyopneumoniae, 144 h, Friis broth solidified with 0.9% agarose, 6 days incubation at 37°C, read-out: MIC
[10] = tested on: Strep. suis (group D) SPS11; experiment: Veterinary bacteria, MIC by two fold serial dilution in agar; details: Streptococcus suis, 18 h
Description: as §1

Strep. uberis SPU1 = experiment: as above; details: Streptococcus uberis, SPU1, 18 h
Description: as §1

M. suipneumoniae LABER = experiment: Anti-mycoplasmal activity, MIC in Friis broth agarose; type: cell-based; details: Mesomycoplasma hyopneumoniae, 144 h, Friis broth solidified with 0.9% agarose, 6 days incubation at 37°C, read-out: MIC
S. dublin S7 = experiment: Veterinary bacteria, MIC by two fold serial dilution in agar; details: Salmonella enterica, S7, 18 h
Description: as §1

Strep. spp. 64/848-C = experiment: Human bacteria, MIC by serial dilution in nutrient agar; type: cell-based; details: nutrient agar with 5% chocolated horse blood, 18 hours at 37°C, read-out: MIC

Row | SMILES | MIC (M. gallisepticum S6) [µg/mL] | MIC [1] [µg/mL] | MIC (Ps. aeruginosa 10662) [µg/mL] | MIC (Past. multocida PA2) [µg/mL] | MIC (Strep. pneumoniae CN33) [µg/mL] | MIC (Strep. agalactiae SPA1) [µg/mL] | MIC (Staph. aureus Oxford) [µg/mL] | MIC (M. bovis NCTC 10131) [µg/mL] | MIC (M. suipneumoniae JF 435) [µg/mL] | MIC [2] [µg/mL] | MIC (Bord. bronchiseptica BO9) [µg/mL] | MIC (Bord. bronchiseptica B08) [µg/mL] | MIC (M. pneumoniae ATCC 15492) [µg/mL] | MIC (Staph. aureus W2827) [µg/mL] | MIC (Past. haemolytica PA5) [µg/mL] | MIC [4] [µg/mL] | MIC (M. dispar NCTC 10125) [µg/mL] | MIC (E. coli NCTC 10418) [µg/mL] | MIC (E. coli ESS) [µg/mL] | MIC [6] [µg/mL] | further results
1 | CC(=CC(=O)OCc1cccc(S(C)(=O)=O)c1)CC1OCC(CC2OC2C(C)C(C)O)C(O)C1O (stereo not drawn) [Example 7, m-Methylsulfonylbenzyl monate A] | 5 (≈ 9.75 µM) | 1 (≈ 1.95 µM) | > 100 | 1.25 (≈ 2.44 µM) | 1 (≈ 1.95 µM) | 2.5 (≈ 4.88 µM) | 2.5 (≈ 4.88 µM) | 0.025 (≈ 0.0488 µM) | 1 (≈ 1.95 µM) | 2.5 (≈ 4.88 µM) | 20 (≈ 39 µM) | > 80 | 2.5 (≈ 4.88 µM) | 5 (≈ 9.75 µM) | 10 (≈ 19.5 µM) | 2.5 (≈ 4.88 µM) | 0.25 (≈ 0.488 µM) | > 100 | 2.5 (≈ 4.88 µM) | 0.5 (≈ 0.975 µM) | MIC (Sarcina lutea 8340): > 100 µg/mL; MIC [3]: 0.5 µg/mL (≈ 0.975 µM); MIC [5]: 0.5 µg/mL (≈ 0.975 µM); MIC (K. aerogenes A): > 100 µg/mL; MIC (Strep. agalactiae 2788-B): 5 µg/mL (≈ 9.75 µM); MIC (Strep. dysgalactiae SPD1): 1.25 µg/mL (≈ 2.44 µM); MIC (E. coli E1): > 80 µg/mL; MIC [7]: 0.25 µg/mL (≈ 0.488 µM); MIC (M. suipneumoniae Str. 11): 0.5 µg/mL (≈ 0.975 µM); MIC [8]: > 100 µg/mL; MIC (Strep. faecalis I): > 100 µg/mL; MIC [9]: > 80 µg/mL; MIC (M. suipneumoniae MS16): 0.5 µg/mL (≈ 0.975 µM); MIC [10]: 20 µg/mL (≈ 39 µM); MIC (Strep. uberis SPU1): 0.625 µg/mL (≈ 1.22 µM); MIC (M. suipneumoniae LABER): 0.5 µg/mL (≈ 0.975 µM); MIC (S. dublin S7): > 80 µg/mL
2 | CC(=CC(=O)OC(C)c1ccc(S(C)(=O)=O)cc1)CC1OCC(CC2OC2C(C)C(C)O)C(O)C1O (stereo not drawn) [Example 9, 1-(p-Methylsulfonylphenyl)ethyl monate A] | 10 (≈ 19 µM) | 2 (≈ 3.8 µM) | > 128 | 2.5 (≈ 4.75 µM) | 4 (≈ 7.6 µM) | 80 (≈ 152 µM) | 10 (≈ 19 µM) | < 0.01 | 1 (≈ 1.9 µM) | 5 (≈ 9.49 µM) | 80 (≈ 152 µM) | > 80 | 0.5 (≈ 0.949 µM) | 16 (≈ 30.4 µM) | 40 (≈ 76 µM) | 5 (≈ 9.49 µM) | 0.05 (≈ 0.0949 µM) | > 128 | 4 (≈ 7.6 µM) | 0.5 (≈ 0.949 µM) | MIC (K. aerogenes A): > 128 µg/mL; MIC (Strep. agalactiae 2788-B): 8 µg/mL (≈ 15.2 µM); MIC (Strep. dysgalactiae SPD1): 0.625 µg/mL (≈ 1.19 µM); MIC (E. coli E1): > 80 µg/mL; MIC [7]: 0.25 µg/mL (≈ 0.475 µM); MIC (M. suipneumoniae Str. 11): 0.5 µg/mL (≈ 0.949 µM); MIC [8]: > 128 µg/mL; MIC (Strep. spp. 64/848-C): 4 µg/mL (≈ 7.6 µM); MIC (Strep. faecalis I): > 128 µg/mL; MIC [9]: 80 µg/mL (≈ 152 µM); MIC (M. suipneumoniae MS16): 0.5 µg/mL (≈ 0.949 µM); MIC [10]: 40 µg/mL (≈ 76 µM); MIC (Strep. uberis SPU1): 0.312 µg/mL (≈ 0.592 µM); MIC (M. suipneumoniae LABER): 0.5 µg/mL (≈ 0.949 µM); MIC (S. dublin S7): > 80 µg/mL
